System: Staphylococcus aureus
Assay: Antimicrobial Efficacy Test 4: elimination of Staphylococcus aureus, identification using a mass spectrometer
Format: cell-based
Settings: substance added as named (70% ethanol, Febreze)
Procedure: In the present disclosure, “natural antimicrobial substance (n %)” means that the natural antimicrobial substance of the present disclosure is dissolved in multi-photocatalyst water or hypochlorous acid water (pH 5) at a concentration of n %. FIGS. 4 to 9 show the data obtained by identifying Staphylococcus aureus and Staphylococcus aureus plus specific substance using a mass spectrometer.

CCO [70% ethanol, ethanol]
elimination of Staphylococcus aureus (mass spectrum / bacterial identification): not eliminated

From patent publication US20220072075A1, “METHOD FOR PRODUCING NATURAL ANTIMICROBIAL SUBSTANCE AND ANTIMICROBIAL COMPOSITION COMPRISING NATURAL ANTIMICROBIAL SUBSTANCE PRODUCED BY THE SAME” (MY CO.,LTD, priority 2020, published 2022)
